# Reference: patent publication US7411064B2, “1-Heterocyclylalkyl-3-sulfonylazaindole or -azaindazole derivatives as 5-hydroxytryptamine-6 ligands” (Wyeth, priority 2002, dated 2008)
# Counter-ions that a name gives are not always drawn.
# System: not given
row,Structure (SMILES),melting point
1,O=S(=O)(c1ccccc1)c1cn(CC2CCCN2Cc2ccccc2)c2ncccc12 (stereo not shown) (as salt: hydrochloride) [Example 9],218 to 220 °C
2,CN1CCCC1Cn1cc(S(=O)(=O)c2cccc(F)c2)c2cccnc21 (stereo not shown) (as salt: hydrochloride) [Example 12],208 to 209 °C

# Other lines, results leading:
row,melting point,Structure (SMILES)
1,128 to 129 °C,O=S(=O)(c1cccc(F)c1)c1cn(CC2CCCN2Cc2ccccc2)c2ncccc12 (stereo not shown) (as salt: hydrochloride) [Example 10]
2,181 to 182 °C,O=S(=O)(c1cccc(F)c1)c1cn(CC2CCCN2)c2ncccc12 (stereo not shown) (as salt: hydrochloride) [Example 11]
3,246 to 247 °C,O=S(=O)(c1cn(CC2CCCN2)c2ncccc12)c1c(Cl)nc2sccn12 (stereo not shown) (as salt: hydrochloride) [Example 14]
4,106 to 107 °C,O=S(=O)(c1ccc(Cl)s1)c1cn(CC2CCCN2)c2ncccc12 (stereo not shown) (as salt: hydrochloride) [Example 15]
5,102 to 103 °C,O=S(=O)(c1cn(CC2CCCN2Cc2ccccc2)c2ncccc12)c1c(Cl)nc2sccn12 (stereo not shown) [Example 13]

# Biological target: human cloned 5-HT6 receptors (Homo sapiens, UniProt P50406)
# Sequence (P50406 whole entry): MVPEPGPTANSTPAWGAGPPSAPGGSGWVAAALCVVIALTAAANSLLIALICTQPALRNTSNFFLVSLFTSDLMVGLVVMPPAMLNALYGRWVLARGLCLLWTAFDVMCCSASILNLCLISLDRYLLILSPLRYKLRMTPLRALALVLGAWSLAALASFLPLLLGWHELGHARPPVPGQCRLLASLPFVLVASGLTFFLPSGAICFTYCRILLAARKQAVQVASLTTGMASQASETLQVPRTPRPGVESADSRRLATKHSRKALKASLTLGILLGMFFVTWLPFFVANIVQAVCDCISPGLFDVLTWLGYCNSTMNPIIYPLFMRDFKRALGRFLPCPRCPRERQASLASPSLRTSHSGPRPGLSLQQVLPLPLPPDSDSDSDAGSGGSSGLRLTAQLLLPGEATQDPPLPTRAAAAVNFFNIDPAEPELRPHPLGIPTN
row,Structure (SMILES),Ki
1,"O=S(=O)(c1ccccc1)c1cn(C[C@H]2CCCN2)c2ncccc12 [Example 3, 3-(Phenylsulfonyl)-1-[(2R)-pyrrolidin-2-ylmethyl]-1H-pyrrolo[2,3-b]pyridine Hydrochloride]",12 nM
2,"O=S(=O)(c1ccccc1)c1cn(C[C@@H]2CCCN2)c2ncccc12 [Example 4, 3-(Phenylsulfonyl)-1-[(2S)-pyrrolidin-2-ylmethyl]-1H-pyrrolo[2,3-b]pyridine Hydrochloride]",66 nM
3,"O=S(=O)(c1cccc(Cl)c1)c1cn(CC2CCCN2Cc2ccccc2)c2ncccc12 (stereo not shown) [Example 6, 1-[(1-Benzylpyrrolidin-2-yl)methyl]-3-(3-chlorophenylsulfonyl)-1H-pyrrolo[2,3-b]pyridine]",132 nM
4,"O=S(=O)(c1cccc(Cl)c1)c1cn(CC2CCCN2)c2ncccc12 (stereo not shown) [Example 7, 3-(3-Chlorophenylsulfonyl)-1-(pyrrolidin-2-ylmethyl)-1H-pyrrolo[2,3-b]pyridine]",3 nM
5,"CN1CCCC1Cn1cc(S(=O)(=O)c2cccc(Cl)c2)c2cccnc21 (stereo not shown) [Example 8, 3-(3-Chlorophenylsulfonyl)-1-[(1-methylpyrrolidin-2-yl)methyl]-1H-pyrrolo[2,3-b]pyridine Hydrochloride]",7 nM
6,CN1CCCC1Cn1cc(S(=O)(=O)c2cccc(F)c2)c2cccnc21 (stereo not shown) [Example 12],6 nM

# Further lines, results first:
row,Ki,Structure (SMILES)
1,163 nM,O=S(=O)(c1ccccc1)c1cn(CC2CCCN2Cc2ccccc2)c2ncccc12 (stereo not shown) [Example 9]
2,174 nM,O=S(=O)(c1cccc(F)c1)c1cn(CC2CCCN2Cc2ccccc2)c2ncccc12 (stereo not shown) [Example 10]
3,9 nM,O=S(=O)(c1cccc(F)c1)c1cn(CC2CCCN2)c2ncccc12 (stereo not shown) [Example 11]
4,57 nM,O=S(=O)(c1cn(CC2CCCN2Cc2ccccc2)c2ncccc12)c1c(Cl)nc2sccn12 (stereo not shown) [Example 13]
5,2 nM,O=S(=O)(c1cn(CC2CCCN2)c2ncccc12)c1c(Cl)nc2sccn12 (stereo not shown) [Example 14]
6,7 nM,O=S(=O)(c1ccc(Cl)s1)c1cn(CC2CCCN2)c2ncccc12 (stereo not shown) [Example 15]
